BindingDB's records for doi:10.1016/j.bmcl.2005.10.026 (Pfizer, 2005)
pIC50: −log10 of the molar value.

Experiments:
[1] = Inhibition of PAF mediated human eosinophil chemotaxis
[2] = Inhibition of PDE4D
[3] = Inhibition of C5a mediated human eosinophil chemotaxis
[4] = Inhibition of Eotaxin mediated by human eosinophil chemotaxis

- pIC50 [1]: 9.00
- pIC50 [2]: > 9.00
- pIC50 [3]: 9.00
- pIC50 [4]: 8.52
SMILES: C[C@@H](NC(=O)c1cccnc1Oc1ccc(F)cc1)c1cccs1 [(R)-2-(4-fluorophenoxy)-N-(1-(thiophen-2-yl)ethyl)nicotinamide]
